pIC50: −log10 of the molar value.

Results on 23 compounds are retold here after patent publication US9562043B2 (EA Pharma Co., Ltd., priority 2012, dated 2017).

For this assay, the target named is T1, human TRPA1 (Homo sapiens, UniProt O75762).
T1 construct: host or cells: human embryonic kidney-derived 293T cells, transient transfection with pcDNA3.1/zeo(+) plasmid
The assay is described as follows: Measurement of TRPA1 antagonist activity (intracellular calcium increase, FLIPR). The format is cell-based. Particulars: 293T cells transfected with human TRPA1 expression plasmid, allylisothiocyanate 20 μM stimulation, calcium fluorescence, read-out: antagonism hTRPA1. The source says:
Measurement of TRPA1 Antagonist Activity
Human TRPA1 Expression Plasmid
As cDNA encoding human TRPA1 (GenBank accession No. […]), a commercially available product was purchased (manufactured by Kazusa DNA Research Institute, clone No.: pFN21AB7348, item No.: FHC07217). Using this as a template, full-length human TRPA1 gene was amplified using the primer sequences shown below, by reaction using DNA polymerase (manufactured by Stratagene, trade name: PfuUltra High-Fidelity DNA Polymerase).
A recognition site (underlined) of restriction enzyme HindIII was added to the 5′ side, and XbaI site (underlined) was added to the 3′ side, and GTT of the template sequence was changed to termination codon TAG (bold). The obtained double stranded DNA was enzyme-digested with HindIII and XbaI, and introduced into a multicloning site of expression plasmid pcDNA3.1/zeo(+) (manufactured by Invitrogen) to give a human TRPA1 expression plasmid.
Human embryonic kidney-derived 293T cells were cultured in Dulbecco's Modified Eagle Medium containing 10% fetal bovine serum, 10 unit penicillin, and 10 μg streptomycin, plated on a petri dish having a diameter of 10 cm at 3×10^6 cells, and cultured for 24 hr. A medium containing a reduced amount of serum (manufactured by Invitrogen, trade name: OPTI-MEM, 600 μL), a gene insertion reagent (manufactured by Mirus Bio, trade name: Mirus TransIT-293, 18 μL), and human TRPA1 expression plasmid (6 μg) were mixed, the total amount of the mixture was added to the cells on the petri dish to allow for gene transfer. The cells were recovered about 8 hr later, plated on a poly-D-lysine coated 384 well black/clear bottom plate at 7,500-12,000 cells/well, and cultured overnight.
Measurement of Intracellular Calcium Increase
The 384 well plate was recovered, and the medium was removed. A calcium-bonded fluorescent indicator (manufactured by Molecular Device, trade name: Calcium4 Assay Kit, 40 μL) dissolved in assay buffer (1×HBSS, 20 mM HEPES, pH 7.2) was added, and the cells were stained in a 37° C. incubator for 1 hr. The cells were taken out at room temperature and left standing for 15 min or more. A test substance (10 μL) was added by a 384 well type dispenser, and the mixture was incubated at room temperature for 10 min. Then, allylisothiocyanate (12.5 μL) at a final concentration of 20 μM was added by a fluorescence imaging plate reader (manufactured by Molecular Device, FLIPR), and changes in the relative fluorescence intensity were measured for 5 min.
Test Substance Preparation
The test substance was dissolved in dimethyl sulfoxide and serially diluted with an assay buffer containing 0.1% bovine serum albumin (1×HBSS, 20 mM HEPES, pH 7.2) to a 5-fold concentration of the evaluation concentration. Allylisothiocyanate, which is a known TRPA1 activator, was dissolved in dimethyl sulfoxide to 100 mM, and further diluted 5-fold (100 μM) of the final concentration, like the test substance.
Calculation of Antagonist Activity
Under the test substance-free conditions, the maximum variation range of the fluorescence intensity before and after allylisothiocyanate stimulation was defined to be 100% activity rate, and the variation range before and after buffer stimulation was defined as 0% activity rate. The activity rate on addition of the test substance was determined, and the numerical value obtained by subtracting the activity rate from 100 was defined to be an inhibitory rate. IC50, which is the concentration of the test substance necessary for reaching the 50% inhibitory rate, was calculated from the sigmoid approximate curve by a spreadsheet software Excel-Fit.
For orientation: Calcium assays in cells follow changes in intracellular calcium, usually with a dye or a luminescent sensor.

T1 sequence (O75762 whole entry): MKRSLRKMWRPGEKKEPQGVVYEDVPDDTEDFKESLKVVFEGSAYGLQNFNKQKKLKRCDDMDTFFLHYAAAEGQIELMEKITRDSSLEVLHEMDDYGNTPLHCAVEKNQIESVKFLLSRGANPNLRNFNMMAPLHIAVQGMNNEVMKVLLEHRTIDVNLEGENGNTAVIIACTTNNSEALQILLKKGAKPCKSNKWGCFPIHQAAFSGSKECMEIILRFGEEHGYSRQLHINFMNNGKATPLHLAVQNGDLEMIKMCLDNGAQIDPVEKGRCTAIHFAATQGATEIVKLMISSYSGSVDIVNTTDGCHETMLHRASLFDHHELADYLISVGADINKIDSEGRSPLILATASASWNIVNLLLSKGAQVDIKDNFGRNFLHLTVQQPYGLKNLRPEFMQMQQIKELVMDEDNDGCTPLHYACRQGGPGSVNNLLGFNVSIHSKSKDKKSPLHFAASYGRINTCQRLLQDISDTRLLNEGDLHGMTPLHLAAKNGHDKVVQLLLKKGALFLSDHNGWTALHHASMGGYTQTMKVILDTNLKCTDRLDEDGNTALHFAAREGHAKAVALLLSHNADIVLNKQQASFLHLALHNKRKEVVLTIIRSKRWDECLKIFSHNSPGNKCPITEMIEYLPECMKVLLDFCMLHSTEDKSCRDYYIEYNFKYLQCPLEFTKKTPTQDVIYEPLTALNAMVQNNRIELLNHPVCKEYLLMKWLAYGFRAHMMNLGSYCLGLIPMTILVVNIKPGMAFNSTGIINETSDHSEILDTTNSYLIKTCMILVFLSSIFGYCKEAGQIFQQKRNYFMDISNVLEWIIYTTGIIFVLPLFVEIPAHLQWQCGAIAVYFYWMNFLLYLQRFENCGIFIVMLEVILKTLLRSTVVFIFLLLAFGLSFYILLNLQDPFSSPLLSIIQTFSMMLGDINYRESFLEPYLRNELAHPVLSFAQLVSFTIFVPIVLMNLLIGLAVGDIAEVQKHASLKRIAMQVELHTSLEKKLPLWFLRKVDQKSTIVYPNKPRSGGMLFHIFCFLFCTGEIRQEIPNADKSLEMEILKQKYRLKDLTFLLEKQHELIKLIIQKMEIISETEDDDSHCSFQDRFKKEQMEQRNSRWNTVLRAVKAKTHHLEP

`C[C@H](NC(=O)[C@@H]1C=CCN1S(=O)(=O)c1ccc(Cl)s1)c1nc(-c2ccc(C(F)(F)F)cc2)cs1` [compound 24, (2S)-1-(5-chlorothiophene-2-sulfonyl)-N-[(1S)-1-{4-[4 (trifluoromethyl)phenyl]-thiazol-2-yl)ethyl]-3,4-didehydropyrrolidine-2-carboxamide]: the pIC50 was 6.33. Turning to `O=C(NCc1nc(-c2ccc(C(F)(F)F)cc2)cs1)[C@@H]1CCCN1S(=O)(=O)c1cc(Br)c(Cl)s1` [compound 40, (2S)-1-(4-bromo-5-chlorothiophene-2-sulfonyl) ({4-[4-{trifluoromethyl)-phenyl]thiazol-2-yl}methyl) pyrrolidine-2-carboxamide], the pIC50 was 6.57. Next, `O=C(NCc1nc(-c2ccc(C(F)(F)F)cc2)cs1)[C@@H]1CC(F)(F)CN1S(=O)(=O)c1ccc(Cl)s1` [compound 27, (2S)-1-(5-chlorothiophene-2-sulfonyl)-N-({4-[4-(trifluoromethyl)phenyl]-thiazol-2-yl}methyl)-4,4-difluoropyrrolidine-2-carboxamide]: 6.02; `O=C(NCc1nc(-c2ccc(C(F)(F)F)cc2)co1)[C@@H]1CCCN1S(=O)(=O)c1ccc(Cl)s1` [compound 12, (2S)-1-(5-chlorothiophene-2-sulfonyl)-N-({4-(4-(trifluoromethyl)phenyl]-oxazol-2-yl}methyl)-pyrrolidine-2-carboxamide]: 6.52. With `O=C(NCc1nc(-c2ccc(OC(F)(F)F)c(F)c2)cs1)[C@@H]1C=CCN1S(=O)(=O)c1ccc(Cl)s1` [compound 22, (2S)-1-(5-chlorothiophene-2-sulfonyl)-N-({4-[3-fluoro-4-(trifluoromethoxy)phenyl]-thiazol-2-yl}methyl)-3,4-didehydropyrrolidine-2-carboxamide], the pIC50 was 6.96. As for `O=C(NCc1nc(-c2ccc(C(F)(F)F)cc2)cs1)[C@@H]1CCCN1S(=O)(=O)c1ccc(Br)cc1` [compound 42, (2S)-1-(4-bromobenzene-2-sulfonyl)-N-({4-[4-(trifluoro-methyl)phenyl]thiazol-2-yl)-methyl)pyrrolidine-2-carboxamide], the figure is 5.83. Next, `O=C(NCc1nc(-c2ccc(OC(F)(F)F)cc2)cs1)[C@@H]1CCN1S(=O)(=O)c1ccc(Cl)s1` [compound 32, (2S)-1-[5-chlorothiophene-2-sulfonyl)-N-({4-[4-(trifluoromethoxy)phenyl]-thiazol-2-yl}methyl)azetidine-2-carboxamide]: 5.55. As for `O=C(NCc1nc(-c2ccc(Cl)cc2)cs1)[C@@H]1C=CCN1S(=O)(=O)c1ccc(Cl)s1` [compound 19, (2S)-1-(5-chlorothiophene-2-sulfonyl)-N-({4-[4-(chloro)phenyl]thiazol-2-yl}methyl)-3,4-didehydropyrrolidine-2-carboxamide], the figure is 6.25; as for `O=C(NCc1nc(-c2ccc(C(F)(F)F)cc2)cs1)[C@@H]1CCCN1S(=O)(=O)c1cccc(F)c1` [compound 50, (2S)-1-(3-fluorophenyl) sulfonyl-N-({4-(4-(trifluoro-methyl)phenyl]thiazol-2-yl)-methyl)pyrrolidine-2-carboxamide], 7.00; as for `O=C(NCc1nc(-c2ccc(C(F)(F)F)cc2)cs1)[C@@H]1CCCN1S(=O)(=O)c1ccc(Cl)nc1` [compound 46, (2S)-1-[(6-chloro-3-pyridyl)-sulfonyl]-N-({4-[4-(trifluoro-methyl)phenyl]thiazol-2-yl}-methyl)pyrrolidine-2-carboxamide], 6.24. For the compound `O=C(NCc1nc(-c2ccc(C(F)(F)F)cc2)cs1)[C@@H]1CCCN1S(=O)(=O)c1ccccc1` [compound 47, (2S)-1-(benzenesulfonyl)-N-({4-[4-(trifluoromethyl)-phenyl]thiazol-2-yl}methyl)-pyrrolidine-2-carboxamide], the pIC50 was 6.09. With `O=C(NCc1csc(-c2ccc(C(F)(F)F)cc2)n1)[C@@H]1CCCN1S(=O)(=O)c1ccc(Cl)s1` [compound 14, (2S)-1-(5-chlorothiophene-2-sulfonyl)-N-({2-[4-(trifluoromethyl)phenyl]-thiazol-4-yl}methyl)-pyrrolidine-2-carboxamide], the pIC50 was 6.70.

As for `O=C(NCc1nc(-c2ccc(C(F)(F)F)cc2)cs1)[C@@H]1CCCN1S(=O)(=O)c1ccsc1` [compound 49, (2S)-1-(3-thienylsulfonyl)-N-({4-[4-(trifluoromethyl)-phenyl)thiazol-2-yl}methyl)-pyrrolidine-2-carboxamide], the pIC50 was 6.47. Next, `O=C(NCc1nc(-c2ccc(C(F)(F)F)cc2)cs1)[C@@H]1CCCN1S(=O)(=O)c1ccc(Br)s1` [compound 39, (2S)-1-(5-bromothiophene-2-sulfonyl)-N-({4-[4-(trifluoromethyl)phenyl]thiazol-2-yl}methyl)pyrrolidine-2-carboxamide]: 6.70; `O=C(NCc1nc(-c2ccc(C(F)(F)F)cc2)cs1)[C@@H]1CCCN1S(=O)(=O)c1ccc(F)cc1F` [compound 53, (2S)-1-(2,4-difluorophenyl)sulfonyl-N-{{4-[4-(trifluoromethyl)-phenyl]thiazol-2-yl}methyl)pyrrolidine-2-carboxamide]: 5.34. Next, `Cc1ccc(S(=O)(=O)N2CCC[C@H]2C(=O)NCc2nc(-c3ccc(C(F)(F)F)cc3)cs2)s1` [compound 41, (2S)-1-(5-methylthiophene-2-sulfonyl)-N-({4-[4-(trifluoro-methyl)phenyl]thiazol-2-yl}-methyl)pyrrolidine-2-carboxamide]: 5.72.

As for `O=C(NCc1nc(-c2ccc(C(F)(F)F)cc2)cs1)[C@@H]1CCCN1S(=O)(=O)c1ccc(Cl)cc1` [compound 38], the pIC50 is 6.01.

As to `O=C(NCc1ccc(-c2ccc(OC(F)(F)F)cc2)s1)[C@@H]1CCCN1S(=O)(=O)c1ccc(Cl)s1` [compound 44, (2S)-1-(5-chlorothiophene-2-sulfonyl)-N-({5-[4-(trifluoro-methoxy)phenyl]-2-thienyl}methyl)pyrrolidine-2-carboxamide], the pIC50 is 6.92. Next, `O=C(NCc1nc(-c2ccc(OC(F)(F)F)c(F)c2)cs1)[C@@H]1CCCN1S(=O)(=O)c1ccc(Cl)s1` [compound 8, (2S)-1-(5-chlorothiophene-2-sulfonyl)-N-({4-[3-fluoro-4-(trifluoromethoxy)-phenyl]thiazol-2-yl}methyl)-pyrrolidine-2-carboxamide]: 6.77. As to `O=C(NCc1nc(-c2ccccc2)cs1)[C@@H]1CCCN1S(=O)(=O)c1ccc(Cl)s1` [compound 4, (2S)-1-(5-chlorothiophene-2-sulfonyl)-N-{(4-phenylthiazol-2-yl)methyl}pyrrolidine-2-carboxamide], the pIC50 was 6.12. As for `Cc1sc(-c2ccc(C(F)(F)F)cc2)nc1CNC(=O)[C@@H]1CCCN1S(=O)(=O)c1ccc(Cl)s1` [compound 45, (2S)-1-(5-chlorothiophene-2-sulfonyl)-N-({5-methyl-2-[4-(trifluoromethyl)phenyl]-thiazol-4-yl}methyl)-pyrrolidine-2-carboxamide], the figure is 6.96; as for `O=C(NCc1nc(-c2ccc(C(F)(F)F)cc2)no1)[C@@H]1CCCN1S(=O)(=O)c1ccc(Cl)s1` [compound 15, (2S)-1-(5-chlorothiophene-2-sulfonyl)-N-({3-[4-(trifluoromethyl)phenyl]-1,2,4-oxadiazol-5-yl}methyl)pyrrolidine-2-carboxamide], 6.62; as for `C[C@H](NC(=O)[C@@H]1CCCN1S(=O)(=O)c1ccc(Cl)s1)c1nc(-c2ccc(C(F)(F)F)cc2)cs1` [compound 10, (2S)-1-(5-chlorothiophene-2-sulfonyl)-N-[(1S)-1-{4-[4-(trifluoromethyl)phenyl]-thiazol-2-yl}ethyl]-pyrrolidine-2-carboxamide], 6.49.
